These are literature values, as cited in patent US20100035998A1, “COMBINATION S-NITROSOTHIOL PHARMACEUTICAL PRODUCTS FOR RESTORING NORMAL BREATHING RHYTHMS” (Galleon Pharmaceutical, Inc, priority 2005, published 2010).

Molecules are shown by their SMILES.

Series [1] relates to upper airway tone. To be noted: animals.
Series [2] relates to central apnea patients. To be noted: low doses.
The subject of series [3] is patients that had predominantly obstructive sleep apnea. As to conditions: low doses; patients with predominantly obstructive sleep apnea.

As for `CN1CCN2c3ncccc3Cc3ccccc3C2C1` (stereo not shown) [Mirtazapine], the “effect on tone of the upper airway” value in series [1] is on record as “help restore the tone of the upper airway to prevent collapse”.

For `CC(=O)Nc1nnc(S(N)(=O)=O)s1` [acetazolamide], the “apnea episodes after one month of treatment” value in series [2] (25.5 pre-treatment) was 6.8. In series [2] (pre-treatment vs after one month of treatment), the “decrease in apnea episodes” value is on record as 73%. Also, the “reduction in apnea episodes” value in series [3] is on record as “about 25%”.
